According to patent US12590093B2, “Indolo[2′,3′:3,4]pyrido[2,1-b]quinazoline compound and use thereof” (INSTITUTE OF MEDICINAL BIOTECHNOLOGY CHINESE ACADEMY OF …, priority 2019, dated 2026):

Tests used:
[1] = system: NLRP3 inflammasome; experiment: NLRP3 inflammasome in J774A.1 cells with MAPK agonist Anisomycin; format: cell-based; settings: MAPK signaling pathway agonist Anisomycin added, FIG. 9
Text: (§1) When animal tissues were used to prepare protein samples, the tissues were firstly homogenized and lysed in the RIPA lysis buffer. The subsequent steps were the same as those for preparing protein samples from cells. When cell supernatants were used to prepare protein samples, the supernatants were freeze-dried, needed to be extracted using a protein recovery kit (Applygen, Beijing, China), and then analyzed by western-blot.
After that, the MAPK signaling pathway agonist Anisomycin and TR3 were added into J774A-1 cells.

[2] = system: ApoE^−/− mice; experiment: Atherosclerosis model in ApoE−/− mice on high-fat diet, Oil Red O staining of aorta; format: in vivo; settings: 5 mg/kg intragastrically, 12 weeks, HFD, versus model group
Experimental: (§2) 6-week-old male C57/BL6 ApoE^−/− mice were fed on normal chaw diet for one week. The mice were randomly divided into three groups (control group, high-fat diet model group, and treatment group, 12 mice per group) according to the body weight. From 7-week-old, the high-fat diet model group and the treatment group were fed on a high fat diet (HFD) (0.15% cholesterol and 20% fat), and the control group was fed on normal chow diet. The treatment group (R3) mice were administered intragastrically with TR3 (5 mg/kg). The control group and the high-fat diet model group mice were intragastrically administered with sodium carboxymethylcellulose (CMC-Na) solution. After 12 weeks of administration, all mice were fasted overnight. The blood sample was taken from the retro-orbital plexus, collected in a EP tube, and then centrifuged for 15 min (2500 rpm). The centrifuged serum (upper layer) was transferred to new EP tubes (divided into two aliquots) and stored at −20° C. for further use. The mice were fixed, and the skin was cut open along the midline of the abdomen to the neck. The abdominal cavity was cut open to collect the fresh liver tissue. The Liver tissue was put into 3 freezing tubes, and then immediately put into liquid nitrogen for subsequent detection of liver lipid detection and extraction of RNA and protein. The thorax was cut open to expose the heart. […]

[3] = system: AMPK; experiment: AMPK level in RAW 264.7 cells by western-blot; format: cell-based, Murine; settings: 1 μM, 18-24 h treatment, FIG. 11
Experimental: Murine macrophages RAW 264.7 cells were subcultured about every 48 h. When the cells were approximately 100% confluent, the old culture medium was removed, and the cells were washed with PBS and digested with trypsin at an appropriate amount for about 2 min at RT. After the digestion solution was removed, the RPMI-1640 complete medium containing 10% FBS was added immediately to inhibit the activity of trypsin. The cells in the culture flask were repeatedly and gently blown with a curved straw, so that they were completely detached from the bottom of the flask and dispersed into the single-cell suspension. The cells were seeded into a new cell flask at a density of 1:4-1:6, and added with an appropriate amount of the complete medium. The flask was placed in an incubator and cultured at 37° C., 5% CO2. RAW264.7 cells were pretreated with si-AMPK (AMPK siRNA) for 24 h, and then treated with compound TR3 (1 μM) for 24 h. The expression of ABCA1 and AMPK was detected by western-blot.
The effect of TR3 on AMPK was detected by western-blot.

[4] = system: ABCA1; experiment: ABCA1 up-regulation, luciferase reporter in ABCA1P-LUC HepG2 cells; format: cell-based; settings: co-incubated with MK886, GW9662, GSK3787 or GGPP
[5] = system: SR-BI; experiment: SR-BI protein expression in liver of ApoE−/− mice; format: in vivo; settings: FIG. 10
Experimental: as §2, with “use.” for “use. The mice were fixed, and the skin was cut open along the midline of the abdomen to the neck. The abdominal cavity was cut open to collect the fresh liver tissue. The Liver tissue was put into 3 freezing tubes, and then immediately put into liquid nitrogen for subsequent detection of liver lipid detection and extraction of RNA and protein. The thorax was cut open to expose the heart.”
as §1, with “The subsequent steps were the same as those for preparing protein samples from cells.” left out

[6] = system: ApoE^−/− mice; experiment: Serum inflammatory factor levels in ApoE−/− mice (ELISA); format: in vivo; settings: 5 mg/kg intragastrically, 12 weeks, HFD
Experimental: 6-week-old male C57/BL6 ApoE^−/− mice were fed on normal chaw diet for one week. The mice were randomly divided into three groups (control group, high-fat diet model group, and treatment group, 12 mice per group) according to the body weight. From 7-week-old, the high-fat diet model group and the treatment group were fed on a high fat diet (HFD) (0.15% cholesterol and 20% fat), and the control group was fed on normal chow diet. The treatment group (R3) mice were administered intragastrically with TR3 (5 mg/kg). The control group and the high-fat diet model group mice were intragastrically administered with sodium carboxymethylcellulose (CMC-Na) solution. After 12 weeks of administration, all mice were fasted overnight. The blood sample was taken from the retro-orbital plexus, collected in a EP tube, and then centrifuged for 15 min (2500 rpm). The centrifuged serum (upper layer) was transferred to new EP tubes (divided into two aliquots) and stored at −20° C. for further use. The mice were fixed, and the skin was cut open along the midline of the abdomen to the neck. The abdominal cavity was cut open to collect the fresh liver tissue. The Liver tissue was put into 3 freezing tubes, and then immediately put into liquid nitrogen for subsequent detection of liver lipid detection and extraction of RNA and protein. The thorax was cut open to expose the heart. The heart was perfused with 10 ml PBS, and then fixed by perfusion with 4% paraformaldehyde solution until the liver turned white. The fixed liver was taken out and placed in a six-well plate containing 4% paraformaldehyde solution for further fixation. The full-length aorta (from the ascending aorta to the common iliac arteries) was isolated and placed in a six-well plate containing 4% paraformaldehyde solution. The aorta was fixed in 4% paraformaldehyde solution overnight and then stored in 20% sucrose solution at 4° C.
The levels of IL-1β, IL-18, IL-6, TNF-α and IL-10 in the serum of ApoE^−/− mice were measured by using the corresponding ELISA kits (Nanjing Sen Bei Jia Biotechnology Co., Ltd., Nanjing, China). Standard dilution and addition: the standard was diluted by gradient, and 10 wells on the coated ELISA plate were set for standard addition. Sample addition: blank wells and sample wells were set separately. The sample wells of the coated ELISA plates were first added with 40 μL sample diluent, and then added 10 μL sample (the final dilution of the sample is 5-fold). […] Assay detection: the absorbance at 450 nm of each well was read with the absorbance at 450 nm of the blank well as zero, and this process was performed within 15 min after the stop solution was added.

[7] = system: ABCA1; experiment: ABCA1 protein expression in liver of ApoE−/− mice; format: in vivo; settings: FIG. 10
Experimental: as §2, with “use.” for “use. The mice were fixed, and the skin was cut open along the midline of the abdomen to the neck. The abdominal cavity was cut open to collect the fresh liver tissue. The Liver tissue was put into 3 freezing tubes, and then immediately put into liquid nitrogen for subsequent detection of liver lipid detection and extraction of RNA and protein. The thorax was cut open to expose the heart.”
as §1, with “The subsequent steps were the same as those for preparing protein samples from cells.” left out

[8] = system: NF-κB signaling pathway; experiment: Western-blot of NF-κB signaling pathway in liver of ApoE−/− mice; format: in vivo; settings: FIG. 7
Experimental: as §2, with “use.” for “use. The mice were fixed, and the skin was cut open along the midline of the abdomen to the neck. The abdominal cavity was cut open to collect the fresh liver tissue. The Liver tissue was put into 3 freezing tubes, and then immediately put into liquid nitrogen for subsequent detection of liver lipid detection and extraction of RNA and protein. The thorax was cut open to expose the heart.”
as §1, with “The subsequent steps were the same as those for preparing protein samples from cells.” left out, “western-blot. […]” for “western-blot.”

c1ccc2c(c1)CN1CCc3c([nH]c4ccccc34)C1=N2 [TR3, 5,7,8,13-tetrahydroindolo[2′,3′:3,4]pyrido[2,1-b]quinazoline]
inhibitory effect on NLRP3, Caspase-1 and IL-1β with Anisomycin added [1]: reduced
atherosclerotic plaque area in the aorta [2]: significantly reduced
AMPK level [3]: significantly up-regulated
up-regulating transcription activity of ABCA1 when co-incubated with nuclear receptor inhibitor [4]: significantly inhibited
expression of SR-BI in the liver [5]: increased
level of IL-1β in mouse serum [6]: decreased the levels of IL-1β, IL-18 and IL-6 significantly
level of IL-6 in mouse serum [6]: decreased the levels of IL-1β, IL-18 and IL-6 significantly
level of IL-18 in mouse serum [6]: decreased the levels of IL-1β, IL-18 and IL-6 significantly
level of TNF-α in mouse serum [6]: decreased the levels of IL-1β, IL-18 and IL-6 significantly and the level of TNF-α slightly
expression of ABCA1 in the liver [7]: increased
expression of p-IκBα [8]: significantly inhibited
expression of p-P65 [8]: significantly inhibited
